Structures are written as SMILES. Read-outs that look alike come from different tables or passages of the source.

The test system of one data set is stress ulcer. In words: Test B: Inhibition on stress ulcer. Format: in vivo, male Sprague-Dawley rats. To be noted: for ED50: Rattus norvegicus, read-out: ED50 (Test B, stress ulcer). The method, then:
Inhibition on stress ulcer
Five male Sprague-Dawley rats, aged 7 weeks and weighing about 200 g were used per group for the study on stress ulcer after the fast for 24 hours. Each animal was immobilized in a restrain cage and immersed to a level of the xiphoid in a water bath kept 22° C. The test compound suspended in 0.1% methylcellulose solution was administered orally (5 ml/kg) just before the immobilization. Seven hours later, the animals were sacrificed and their stomachs were removed. The stomach was then fixed with 2% formalin. The area of ulcers was measured for each animal. The mean area (mm^2) in the test animals was compared with that in the control animals.

The next data set concerns gastric antrum. In words: Spasmolytic activity in vivo: spontaneous contraction of the gastric antrum. Also noted: species or system Mongrel dogs. The note with it: dogs. The method, then:
(§1) Spasmolytic activity in vivo
(§2) Mongrel dogs were anesthetized with s.c. injection of morphine chloride (10 mg/kg) and urethane (1.5 g/kg). The abdomen was incised along the midline, and a ballon filled with water was introduced into the gastric antrum or jejunum. The spontaneous contraction of the gastric antrum and jejunum were continuously recorded through the balloon connected to a pressure transducer. The test drugs were given intravenously. The effect of the test drug is expressed as inhibitory percentage compared to the contractile magnitude obtained before the test drug. The blood pressure was also monitored with a pressure transducer through a cannula inserted in the femoral artery.

In the next data set the test system is jejunum. Description: Spasmolytic activity in vivo: spontaneous contraction of the jejunum. Also noted: species or system Mongrel dogs. The note with it: dogs. The method, then: as §1, §2
Data set [1] is described as follows: Blood pressure monitored in spasmolytic activity test (cannula in femoral artery). To be noted: dogs. In kind it is in vivo, Mongrel dogs. The method, then:
as §1, §2

In the next data set the test system is gastric secretion. In words: Test A: Gastric secretion in Heidenhain pouch dogs (tetragastrin-stimulated total acid output). In kind it is in vivo, Beagle dogs. The note with it: Canis lupus familiaris, intravenous, tetragastrin 10 μg/kg/hr. The method, then:
Gastric secretion in Heidenhain pouch dogs
Beagle dogs, weighing about 8-13 kg, were used for the study on gastric secretion. The animals were surgically provided with a vagally denervated Heidenhain pouch. One month or more later, the dogs were fasted overnight. Gastric secretion was stimulated by an intravenous infusion of tetragastrin (10 μg/kg/hr). Gastric samples were collected at 15 min intervals. After its volume was almost constant, test compound suspended in 0.1% methyl cellulose solution was injected intravenously (0.2 ml/kg). Acid concentration was determined by titrating an aliquot to pH 7.0 with 0.1N sodium hydroxide solution using automatic titration (Hiranuma RAT-11 Type). Total acid output was calculated by multiplying total volume of gastric samples by acid concentration, and percentage change of total acid output was calculated by comparing with predosing value of test compound.

A further data set has as its system ethanol ulcer. Description: Test C: Inhibition on ethanol ulcer. The note with it: Rattus norvegicus, 0.5 h; oral; rats; absolute ethanol 5 ml/kg 30 minutes after dosing. Format: in vivo, male Sprague-Dawley rats. The method, then: Inhibition on ethanol ulcer
Five male Sprague-Dawley rats, aged 7 weeks and weighing about 200 g, were used per group for the study on ethanol ulcer after the fast for 24 hours.
Test compound was suspended in 0.1% methylcellulose aqueous solution, and the suspension (5 ml/kg) was orally given to each rat.
The control group was given a vehicle, i.e. 0.1% methylcellulose aqueous solution (5 ml/kg), alone in the same way.
Absolute ethanol (5 ml/kg) was orally administered 30 minutes after dosing with test compound, and one hour later, the rats were sacrificed and their stomachs were removed. The area of ulcers of each rat was measured. The mean area (mm^2) in the medicated group was compared with that in the control group.

The conditions of data set [2]: British Pat. No. 666,778; cited from earlier work.
Setting [3] is: oral, rats, restraint and water immersion 22° C., 7 hours.

As for `CC(C)N(CCC(C(N)=O)(c1ccccc1)c1ccccn1)C(C)C` (stereo not drawn) [Disopyramide phosphate, α-phenyl-α-(2-pyridyl)-4-(N,N-diisopropylamino)butyramide], the “ED50 (Test B, stress ulcer)” value in the data set with stress ulcer (setting [3]) is “No Effect”. Besides, the “Duration (gastric antrum)” value in the data set with gastric antrum (100 μg/Kg intravenous) came out at 10 min; in the data set on gastric antrum (1000 μg/Kg intravenous) it was 60 min. Besides, the “Inh. (gastric antrum)” value in the data set with gastric antrum (100 μg/Kg intravenous) stood at 46%; in the data set on gastric antrum (1000 μg/Kg intravenous), 88%. Also, the “Duration (jejunum)” value with jejunum (100 μg/Kg intravenous) was 0 min; with jejunum (1000 μg/Kg intravenous), more than 60 min. Besides, the “Inh. (jejunum)” value is reported as 4% with jejunum (100 μg/Kg intravenous) and 85% in the data set with jejunum (1000 μg/Kg intravenous). The “Blood pressure change (gastric antrum)” value in data set [1] (100 μg/Kg intravenous) is on record as “+3%”; in data set [1] (1000 μg/Kg intravenous) it was “+5%”. The “Blood pressure change (jejunum)” value in data set [1] (100 μg/Kg intravenous) was “+1%”; in data set [1] (1000 μg/Kg intravenous) it was “+14%”.

Turning to `CN1CCN(CC(=O)N2c3ccccc3C(=O)Nc3cccnc32)CC1` [Gastrozepine], the ED50 in the data set on gastric secretion turned out to be 0.03 mg/kg; in the data set with stress ulcer (setting [3]), 36 mg/kg; in the data set with ethanol ulcer it was 14.4 mg/kg.

On to `COC1CC(=C(c2cccs2)c2cccs2)C[N+](C)(C)C1` (centres unmarked) [Timepidium Bromide], for which, in the data set on gastric antrum (10 μg/Kg intravenous), the “Duration (gastric antrum)” value was 10 min and the “Inh. (gastric antrum)” value came to 55%. Besides, in the data set on gastric antrum (100 μg/Kg intravenous), the “Duration (gastric antrum)” value was found to be 30 min and the “Inh. (gastric antrum)” value was determined as 92%. In the data set on jejunum (10 μg/Kg intravenous), the “Duration (jejunum)” value was 30 min and the “Inh. (jejunum)” value is 59%. For the same compound, in the data set on jejunum (100 μg/Kg intravenous), the “Duration (jejunum)” value was more than 60 min and the “Inh. (jejunum)” value was determined as 91%. Moreover, in data set [1] (10 μg/Kg intravenous), the “Blood pressure change (gastric antrum)” value is “+4%” and the “Blood pressure change (jejunum)” value is listed as -3%. Besides, in data set [1] (100 μg/Kg intravenous), the “Blood pressure change (gastric antrum)” value was -19% and the “Blood pressure change (jejunum)” value is given as -24%.

For `CC(CN(C)C)C(C#N)(c1ccccc1)c1ccccn1` (stereo not drawn) [α-phenyl-α-(2-pyridyl)-4-(N,N-dimethylamino)-3-methylbutyronitrile], the antihistaminic activity entry in data set [2] is recorded as “possesses antihistaminic activity”.

As for `CC(CC(C(N)=O)(c1ccccc1)c1ccccn1)N(C)C` (centres unmarked) [Example 3, 4-(N,N-dimethylamino)-2-phenyl-2-(2-pyridyl)-valeramide], the ED50 with gastric secretion turned out to be 0.27 mg/kg; in the data set on stress ulcer (po, 7 h), 2.7 mg/kg; in the data set on ethanol ulcer it was 6.8 mg/kg. Moreover, the “Duration (gastric antrum)” value in the data set with gastric antrum (10 μg/Kg intravenous) is 60 min; in the data set with gastric antrum (100 μg/Kg intravenous), 90 min. For the same compound, the “Inh. (gastric antrum)” value with gastric antrum (10 μg/Kg intravenous) is on record as 52%; in the data set on gastric antrum (100 μg/Kg intravenous) it was 95%. The “Duration (jejunum)” value with jejunum (10 μg/Kg intravenous) is 30 min; with jejunum (100 μg/Kg intravenous), more than 60 min. Also, the “Inh. (jejunum)” value is 70% in the data set with jejunum (10 μg/Kg intravenous) and 93% with jejunum (100 μg/Kg intravenous). For the same compound, the “Blood pressure change (gastric antrum)” value in data set [1] (10 μg/Kg intravenous) is listed as -3%; in data set [1] (100 μg/Kg intravenous), -4%. For the same compound, the figures for the “Blood pressure change (jejunum)” value in data set [1] (10 μg/Kg intravenous) and in data set [1] (100 μg/Kg intravenous) were -3% and -7%, respectively.

A word on the ED50: it is the midpoint of the dose-response relation.

The record behind these values is patent US4564621A, “α-Aryl-α-pyridylalkanoic acid derivatives, process for preparation thereof and pharmaceutical composition comprising the same” (Fujisawa Pharmaceutical Co., Ltd., priority 1982, dated 1986).
